The values below come from patent US11690895B2, “Compositions and methods of interferon alpha binding proteins” (priority 2017, dated 2023).

For one assay, the system named is rat neurons. As to the kind of experiment: PSD-95 puncta on rat neurons exposed to IFNα. The conditions noted are these: IFNα 300 IU/mL, compared to control neurons. It is filed as cell-based. The protocol:
(§1) Rat neurons were either obtained from Brain Bits (Cat #SDECX; embryonic day 18) and cultured in NBACTIV1 media (Cat #nbactivl) until day 14, when they are relatively “mature”, or cortical neurons were prepared from embryonic day 18 Sprague Dawley fetuses. Two different densities of neurons were utilized, based on test procedures. For PSD-95 puncta, low density cultures (10,000 neurons/cm') were placed on 12 mm poly D Lysine (Sigma cat #2636) coated coverslips, incubated in wells with glia (astrocytes) or removed for IFNα (300 IU/ml) exposure. High density cultures (500,000 neurons/60 mm dish) were used for protein extraction. These cultures contained approximately 2-3% glia (GFAP immunostaining).
Rat neurons were seeded on poly-L-lysine coated coverslips and co-cultured with astroglia. On day 14, half of the conditioned medium from co-culture was transferred to new 6 well plates. […] PSD-95 puncta were identified and counted with SYNPANAL software. […] PSD-95 puncta along the region were counted and divided by the length to obtain PSD-95 puncta/unit. […] For each treatment, the average puncta/unit was determined by averaging the puncta/unit for each neuron (at least 10/treatment in each replicate plate). For each treatment within the experiment, the average puncta/unit is determined by averaging the puncta/unit for each replicate of that treatment (thus, n=3/treatment) for 20 min and 2 hours. […]

The next assay has as its system Arf1. Nature of the assay: Arf1 expression in rat neuronal cultures (proteomics, Western blot). It is filed as cell-based. The conditions noted are these: IFNα 300 IU/ml. As for the experimental part:
as §1
Protein samples (5 to 10 micrograms) were resolved in Criterion precast gels (Bio-Rad) and transferred to a PVDF membrane using a semidry system (Bio-Rad). All blocking antibody and washing steps were performed at room temperature (RT) on a rocker. Membranes were incubated for one hour in 3% non-fat dry milk in TBST (25 mM Tris, 140 mM NaCl, 3 mM KCl, and 0.05% Tween-20), then 4 hr in anti-Arfl antibody (cat #ARP75924_P050, Aviva; 1:1000) diluted in 1% non-fat dry milk in TBST. Membranes were briefly washed in TBST followed by 3 separate 5 minute incubations in TBST. Membranes were incubated for one hour with goat anti-rabbit IgG HRP (cat #NEF812001EA, Perkin Elmer 1:5,000) diluted in 1% non-fat dry milk in TBST. Final washing included a quick rinse with ddH2O, 2 min wash in TBST, 4 min wash in TBST, and 5 min wash in 1× TBS. Immunoreactive bands were detected with chemiluminescence using ECL Prime substrate (cat #RPN2236, GE Healthcare Life Sciences) on a Chemidoc imager (Bio-Rad), and quantified with ImageJ (NIH). Arf1 signal was normalized to GAPDH Western blot (WB) intensity (cat #MAB374, Millipore;1:20,000).
For proteomic analysis of total protein, rat cortical neurons were cultured in 60 mm dishes in high density (described above). After 14 days, cells were treated with 300 IU/mL IFNα for 20 min, 2 hr, 8 hr, 24 hr, or 48 hr. For comparison of the proteome, untreated cells were given sterile, distilled water (vehicle) equal to the volume of IFNα. After incubations, cells were washed once in RT phosphate buffered saline (PBS) and scraped into 500 microliters of PBS. Cell slurries were snap frozen in a dry ice ethanol bath and processed by the Emory University Proteomics Core.
To select proteins for further analysis, GO-Elite software was used. […] These lists of accession numbers were derived by identifying proteins for which the total peptide spectral match (PSM) was seven-fold (or more) lower in the IFNα treated sample than in the control sample. […] Thus, Arfl was selected for WB analysis.
On the technique in general: In western blotting, separated proteins are transferred to a membrane and probed.

For the next assay, the system named is AMPA receptor (AMPAR). As to the kind of experiment: AMPA receptor (GLuR2) immunofluorescent staining of rat neurons. It counts as cell-based. The conditions noted are these: IFNα exposure for 2 hours. As for the experimental part:
Rat neurons were fixed with 4% paraformaldehyde in PBS for 20 min at RT. They were incubated with anti-GLuR2 (EMD Millipore, Burlington Mass.; 1:100), a subunit of the AMPA receptor (AMPAR), for 1 hour at RTO in the dark. After washes, this was followed by incubation with DAPI […] (Images were subjected ImageJ software for densitometric analysis).

Another assay relates to rat neuronal cultures. The conditions noted are these: mediated through IFNAR and NMDAR, earlier studies; cited from earlier work.

For the substance IFNα, the PSD-95 puncta result in the assay on rat neurons (20 minutes) and with rat neurons (2 hours) was “significantly decreased” throughout. For the same substance, the “Arf1 level (Western blot)” value in the assay on Arf1 (2 hours) is given as “decreases”; with Arf1 (4 hours), “decreases”; in the assay on Arf1 (8 hours (data not shown)), “decreased”; in the assay on Arf1 (24 hours (data not shown)), “not consistently”. In the assay with AMPA receptor (AMPAR), the “neuronal surface expression of AMPARs” value was “significantly decreased”. Further, in the assay with rat neuronal cultures, the “effect on dendrites of rat neuronal cultures” value is listed as “dendritic simplification”.
